In patent US7981913B2, “Isophthalates as beta-secretase inhibitors” (Bristol-Myers Squibb Company, priority 2005, dated 2011):

The molecules below were run against T1, BACE1 enzyme (Homo sapiens, UniProt P56817) (assay: Radioligand displacement assay with a radiolabeled BACE inhibitor on HEK293-9B.A1 cell homogenate). Settings: displacement of 1 nM tritiated radioligand, HEK293-9B.A1 homogenate, pH 5.0, 1.5 hr at 25° C.; read-out: Activity Rating (based on IC50 values).
T1 construct: The HEK293-9B.A1 cell line, which overexpresses the BACE1 enzyme, was derived from HEK293 cells; endogenous in cells; washed 48,000 x g membrane pellet / cell homogenate
T1 sequence (P56817 46-501): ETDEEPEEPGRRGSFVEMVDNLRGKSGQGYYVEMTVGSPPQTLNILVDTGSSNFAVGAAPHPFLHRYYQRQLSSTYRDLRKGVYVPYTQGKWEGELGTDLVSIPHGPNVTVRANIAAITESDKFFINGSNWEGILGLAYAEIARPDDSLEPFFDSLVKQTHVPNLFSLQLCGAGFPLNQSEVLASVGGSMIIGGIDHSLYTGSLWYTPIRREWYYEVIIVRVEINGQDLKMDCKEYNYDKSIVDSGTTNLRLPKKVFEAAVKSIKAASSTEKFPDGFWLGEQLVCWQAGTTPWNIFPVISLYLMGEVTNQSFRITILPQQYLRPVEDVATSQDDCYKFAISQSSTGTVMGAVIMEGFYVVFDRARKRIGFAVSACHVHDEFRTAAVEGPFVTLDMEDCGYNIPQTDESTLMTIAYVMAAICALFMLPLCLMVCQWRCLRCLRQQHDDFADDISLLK
Format: binding
Text: There are a number of methods by which inhibitors of the BACE enzyme can be identified experimentally. The enzyme can be obtained from membrane samples from natural tissues or cultured cells or can be expressed recombinantly in a host cell by well known methods of molecular biology. The whole enzyme or a portion thereof can be expressed, for example, in bacterial, insect or mammalian cells to obtain a catalytically active enzyme species. The enzymatic activity and/or ligand binding capability of the enzyme can be assessed within these membrane samples, or the enzyme can be purified to varying extents. As an illustrative example, the nucleic acid sequence encoding the pro and catalytic domains of human BACE can be appended on the 5′ end with an untranslated and signal sequence from the gene for acetylcholinesterase, and on the 3′ end with a sequence encoding a poly-histidine tag. This cDNA can then be expressed in Drosophila melanogaster S2 cells in which the signal and pro sequences of the transcribed/translated protein are removed by cellular proteases and the catalytic domain, appended by a C-terminal poly-histidine tag, is secreted out into the cellular medium. The enzyme can then be purified from the culture medium by nickel affinity chromatography by methods well known to those trained in the art [Mallender, W. et al., (2001) “Characterization of recombinant, soluble beta-secretase from an insect cell expression system.” Mol. Pharmacol. 59: 619-626]. Similar strategies for expressing and purifying various forms of BACE in bacterial, mammalian and other cell types would be known to one skilled in the art. A preferred method for determining the potency of a test compound in binding to the BACE enzyme is by monitoring the displacement of a suitable radioligand.
Radioligand displacement assays with a radiolabeled BACE inhibitor (WO 2004 013098, compound 3, where the methoxy group is substituted for C(^3H)3) were carried out using standard methods (Keen, M. (1999) in Receptor Binding Techniques (Walker, J. M. ed) p. 106 Humana Press, Totowa, N.J.). The HEK293-9B.A1 cell line, which overexpresses the BACE1 enzyme, was derived from HEK293 cells (Simmons, N. L. (1990) A cultured human renal epithelioid cell line responsive to vasoactive intestinal peptide. Exp. Physiol. 75:309-19.) by RAGE™ (Harrington, J. J. et al. (2001) Creation of genome-wide protein expression libraries using random activation of gene expression. Nat. Biotechnol. 19:440-5; U.S. Pat. Nos. 6,410,266 and 6,361,972). […]
With `CCCO[C@H]1CN[C@@H]([C@@H](O)[C@H](Cc2cc(F)cc(F)c2)NC(=O)c2cc(C(=O)N3CCC[C@@H]3COC)cc(-c3ncco3)c2)C1` [Example 11, N-((1R,2S)-3-(3,5-difluorophenyl)-1-hydroxy-1-((2R,4R)-4-propoxypyrrolidin-2-yl)propan-2-yl)-3-((R)-2-(methoxymethyl)pyrrolidine-1-carbonyl)-5-(oxazol-2-yl)benzamide] the IC50 was < 100 nM. `CCCCN(C)C(=O)c1cccc(C(=O)N[C@@H](Cc2cc(F)cc(F)c2)[C@H](O)[C@H]2CC(c3ccccc3)CN2)c1` (stereo partly drawn) [Example 7, N^1-butyl-N^3-((1R,2S)-3-(3,5-difluorophenyl)-1-hydroxy-1-((2R)-4-phenylpyrrolidin-2-yl)propan-2-yl)-N^1-methylisophthalamide] was tested, and the IC50 was 100 to 1000 nM. In the case of `CCCO[C@H]1CN[C@@H]([C@@H](O)[C@H](Cc2cc(F)cc(F)c2)NC(=O)c2cc(C(=O)N(CCC)CCC)cc(-c3ncco3)c2)C1` [Example 12, N^1-((1R,2S)-3-(3,5-difluorophenyl)-1-hydroxy-1-((2R,4R)-4-propoxypyrrolidin-2-yl)propan-2-yl)-5-(oxazol-2-yl)-N^3,N^3-dipropylisophthalamide], the IC50 is reported as < 100 nM. `CCCN(CCC)C(=O)c1cc(C(=O)N[C@@H](Cc2ccccc2)[C@H](O)[C@H]2C[C@@H](S(=O)(=O)CCC)CN2)cc(-c2ncco2)c1` [Example 17, N^1-((1R,2S)-1-hydroxy-3-phenyl-1-((2R,4R)-4-(propylsulfonyl)pyrrolidin-2-yl)propan-2-yl)-5-(oxazol-2-yl)-N^3,N^3-dipropylisophthalamide] was tested, and the IC50 was < 100 nM.
